From patent US11524938B2, “Aromatic sulfonamide derivatives” (Bayer Pharma Aktiengesellschaft, priority 2016, dated 2022) come the findings set out here.

This assay deals with T1, human P2X4 (Homo sapiens, UniProt Q99571).
T1 sequence (Q99571 1-388): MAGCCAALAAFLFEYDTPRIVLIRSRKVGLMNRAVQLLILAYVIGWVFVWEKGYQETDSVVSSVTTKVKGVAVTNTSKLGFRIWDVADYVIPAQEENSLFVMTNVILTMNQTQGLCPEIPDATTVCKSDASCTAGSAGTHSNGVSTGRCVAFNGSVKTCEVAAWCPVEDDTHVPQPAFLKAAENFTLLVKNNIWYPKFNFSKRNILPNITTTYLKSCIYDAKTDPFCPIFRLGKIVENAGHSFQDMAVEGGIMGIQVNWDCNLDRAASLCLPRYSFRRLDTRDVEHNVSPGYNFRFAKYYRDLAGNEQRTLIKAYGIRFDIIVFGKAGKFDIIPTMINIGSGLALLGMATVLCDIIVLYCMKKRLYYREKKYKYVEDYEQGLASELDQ
In words: Human P2X4 HEK Cell FLIPR Assay. The format is cell-based. The settings on record: agonist Bz-ATP at EC80; for Emax: HEK293, HEK293 cells, percentage of maximal inhibition, read-out: Human P2X4 HEK Cells (FLIPR Assay) avg Efficacy [%]; for IC50: HEK293 cells, individual values listed where some fall outside detection range. The method in brief:
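HEK293 cells stably expressing human P2X4, Fluo8-AM loaded 30 min at 37° C, then compound 30 min at room temperature (0.5% DMSO, pH 7.4 buffer with 1.8 mM CaCl2). Bz-ATP at its daily-determined EC80 added; calcium fluorescence read over 120 sec; IC50 from peak RFU normalized to agonist control, triplicates.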

With `NS(=O)(=O)c1cc(NC(=O)Cc2ccccc2Cl)ccc1-c1cnn(C2CC2)c1` [Example 349, 2-(2-Chlorophenyl)-N-[4-(1-cyclopropyl-1H-pyrazol-4-yl)-3-sulfamoylphenyl]acetamide], the Emax was found to be 99%. In general, IC50 refers to the midpoint of a concentration-inhibition curve. Low values mean higher potency, high ones lower potency. Turning to `COCCn1cc(-c2ccc(NC(=O)Cc3c(F)cccc3Cl)cc2S(N)(=O)=O)cn1` [Example 350, 2-(2-Chloro-6-fluorophenyl)-N-{4-[1-(2-methoxyethyl)-1H-pyrazol-4-yl]-3-sulfamoylphenyl}acetamide], the Emax stood at 87% and the IC50 was determined as 49 nM.

Take `Cc1cc(-c2ccc(NC(=O)Cc3ccccc3Cl)cc2S(N)(=O)=O)n(C)n1` [Example 351, 2-(2-Chlorophenyl)-N-[4-(1,3-dimethyl-1H-pyrazol-5-yl)-3-sulfamoylphenyl]acetamide]: the Emax was 88% and the IC50 worked out at 51 nM. In the same order, the values of `NS(=O)(=O)c1cc(NC(=O)Cc2ccccc2Cl)ccc1-c1ccc(Cl)cc1` [Example 352, 2-(2-Chlorophenyl)-N-(4′-chloro-2-sulfamoylbiphenyl-4-yl)acetamide] are 91% and 54 nM. As for `Cn1nc(C(F)(F)F)cc1-c1ccc(NC(=O)Cc2ccccc2Cl)cc1S(N)(=O)=O` [Example 353, 2-(2-Chlorophenyl)-N-{4-[1-methyl-3-(trifluoromethyl)-1H-pyrazol-5-yl]-3-sulfamoylphenyl}acetamide], the Emax stood at 87% and the IC50 is 57 nM. In the same order, the values of `NS(=O)(=O)c1cc(NC(=O)Cc2ccccc2Cl)ccc1-c1cccnc1` [Example 354, 2-(2-Chlorophenyl)-N-[4-(pyridin-3-yl)-3-sulfamoylphenyl]acetamide] are 92% and 60 nM. Turning to `Cn1cc(-c2ccc(NC(=O)Cc3ccccc3Cl)cc2S(N)(=O)=O)c(C(F)(F)F)n1` [Example 355, 2-(2-Chlorophenyl)-N-{4-[1-methyl-3-(trifluoromethyl)-1H-pyrazol-4-yl]-3-sulfamoylphenyl}acetamide], the Emax is 76% and the IC50 came out at 62 nM. For `NS(=O)(=O)c1cc(NC(=O)Cc2ccccc2Cl)ccc1-c1cccc(Cl)c1` [Example 356, 2-(2-Chlorophenyl)-N-(3′-chloro-2-sulfamoylbiphenyl-4-yl)acetamide], the Emax turned out to be 96% and the IC50 stood at 63 nM. As to `NS(=O)(=O)c1cc(NC(=O)Cc2ccccc2Cl)ccc1-c1cnn(CC2CC2(Cl)Cl)c1` (stereo not drawn) [Example 357, 2-(2-Chlorophenyl)-N-(4-{1-[(2,2-dichlorocyclopropyl)methyl]-1H-pyrazol-4-yl}-3-sulfamoylphenyl)acetamide], the Emax is 87% and the IC50 is 71 nM. In the case of `Cc1nn(C)cc1-c1ccc(NC(=O)Cc2ccccc2Cl)cc1S(N)(=O)=O` [Example 358, 2-(2-Chlorophenyl)-N-[4-(1,3-dimethyl-1H-pyrazol-4-yl)-3-sulfamoylphenyl]acetamide], the Emax was 88% and the IC50 stood at 74 nM. Turning to `CC(C)n1cc(-c2ccc(NC(=O)Cc3ccccc3Cl)cc2S(N)(=O)=O)cn1` [Example 359, 2-(2-Chlorophenyl)-N-{4-[1-(propan-2-yl)-1H-pyrazol-4-yl]-3-sulfamoylphenyl}-acetamide], the Emax is 84% and the IC50 amounted to 77 nM. Turning to `Cn1cc(-c2ccc(NC(=O)Cc3ccccc3Cl)cc2S(N)(=O)=O)cn1` [Example 360, 2-(2-Chlorophenyl)-N-[4-(1-methyl-1H-pyrazol-4-yl)-3-sulfamoylphenyl]acetamide], the Emax came to 93%. For `CC(C)(C)C(O)Cn1cc(-c2ccc(NC(=O)Cc3ccccc3Cl)cc2S(N)(=O)=O)cn1` (stereo not drawn) [Example 361, 2-(2-Chlorophenyl)-N-{4-[1-(2-hydroxy-3,3-dimethylbutyl)-1H-pyrazol-4-yl]-3-sulfamoylphenyl}acetamide], the Emax is 83% and the IC50 worked out at 97 nM.
